Entries after “also recorded” stand apart in the source; their conditions may differ.
Legend:
[1] = test system: MDSCs (Gr1+CD11b+); set-up: species or system mice; details: mouse, in vivo
[2] = test system: CD247; test: Adoptive transfer of CFSE-labeled normal splenocytes, CD247 in host and donor cells; format: in vivo, mice; details: BCG-inflamed hosts, 24 h after transfer, spleen
Protocol: CFSE-labeled splenocytes from normal mice (donor cells) were adoptively transferred into mice untreated, inflamed, and inflamed treated i.p. with irinotecan (hosts). After 24 h, splenocytes from each group were harvested and stained for CD247 expression (MFI) in CD3+ T cells within the CFSE+ (donor-cell) or CFSE− (host-cell) population. Data from three independent experiments (n=4) is presented. Statistical analyses using t test indicated significant differences at 95% Cl. Means and SEM are shown. * P<0.05. Abbreviations: Ho. (host), Do. (donor), cont. (control).
CFSE-labeled splenocytes from normal mice (donor cells) were adoptively transferred into non-inflamed, inflamed, and inflamed mice treated i.p. with 5-FU (hosts). After 24 h, splenocytes from each group were harvested and stained for CD247 expression (MFI) in CD3+ T cells within the CFSE+ (donor-cell) or CFSE− (host-cell) population. Data from three independent experiments (n=4) is presented. Statistical analyses using t test indicated significant differences at 95% Cl. Means and SEM are shown. *, P<0.05. Abbreviations: Ho. (host), Do. (donor), cont. (control).
Next, the effect of etanercept treatment on the host's immune status as well as on adoptively transferred T- and NK-cells was examined. It should be noted that adoptively transferred T- and NK-cells being a treatment that is frequently used today in different immunotherapeutic regiments for various pathologies. To this end, CFSE-labeled normal splenocytes were administered, i.v., 1 day before cell harvest, at the peak of the inflammatory response (mimicking cell mediated therapies).

[3] = test system: CD11b+CD11c+ and CD11b+F4/80+ cells; test: Myeloid differentiation state in spleen (DCs, macrophages, APC maturation); format: in vivo; details: BCG-inflamed mice
Source text: FIG. 18A-18E. Splenocytes and PBLs from mice untreated (naïve), inflamed, or inflamed and treated with 5-FU or CPT-11 were fixed, permeabilized, and double stained for the expression of CD247 (ζ-chain) (FIGS. 18A, 18B) and CD3ε-chain (FIGS. 18D, 18E), as shown by mean fluorescence intensity (MFI), measured in gated CD3^+ cells. FIG. 18C: Splenocytes from mice, naïve, inflamed and inflamed treated with 5-FU or CPT-11, were labeled with CFSE and activated with anti-CD3 and anti-CD28 antibodies or left non-activated. The proliferative response was assessed by monitoring cell divisions of gated CFSE-labeled Thy1.2+ (CD90+) T-cells. The percent of proliferating cells was calculated and compared to steady state levels of non-activated cells per each group. Data from three independent experiments is presented (n=3). Statistical analyses using t test indicated significant differences at 95%. Means and SEM are shown. *, P<0.05; **, P<0.01. FIG. 18F-18I. For the detection of myeloid differentiation state, splenocytes from each group were stained for (18F) DC11b^+CD11c^+ cells (representing DCs), (18G) DC11b^+F4/80^+ cells (representing monocytes), (18H) CD11c^+MHCII^+CD80^+ cells (representing fully differentiated […] as antigen presenting cells) and (18I) F4/80^+MHCII^+CD80^+ cells (representing fully differentiated […] as antigen presenting cells). Data from three independent experiments (n=4) is presented. Statistical analyses using t test indicated significant differences at 95%. Means and SEM are shown. *, P<0.05; **, P<0.01; ***, P<0.001. Abbreviations: Nor. (normal), Rel. (relative), Inf. (inflamed), ce. Pro. (cell proliferation)
Isolated splenocytes and peripheral blood leukocytes (PBLs) were treated with erythrocyte lysis buffer and washed in PBS. Cells were pre-coated with anti-CD16/CD32 (Biolegend) for FcR blockage. For surface staining, cells were incubated for 30 min at 4° C. with FITC-labeled anti-Gr1, anti-CD11c, and anti-CD4; PE-labeled anti F4/80, anti-CD3ε, anti-CD45R/B220, and anti-mNKp46; and biotinylated anti-CD11b and anti-CD8 that were detected with streptavidin-Cy5 (Biolegend and eBioscience). Intracellular staining of CD247 cells was performed by subjecting the cells to fixation with paraformaldehyde (1%) for 20 min at 4° C., followed by washing and permeabilization for 10 min with saponin detergent (0.1%) at room temperature (RT). Cells were then washed and incubated with FITC-labeled monoclonal anti-CD247 (H146) (Abcam), or biotinylated monoclonal anti-CD247 (H146), which were subsequently detected with streptavidin-Cy5. FoxP3 staining was performed according to the manufacturer's instructions. Samples were analyzed using FACSCalibur with Cell Quest software (BD).

[4] = Spleen weight and size, BCG chronic inflammation mouse model; format: in vivo; details: BCG-inflamed WT-mice, 2 days after third BCG injection
Protocol: FIG. 15B. Spleen weight (left) and size (right) in etanercept-treated and untreated mice (n=7) was evaluated 2 days following the third BCG injection. *P<0.003, **P<0.002 (t-test). Data are from two independent experiments (mean and s.d.).
Induced chronic inflammation in mice was established by sustained subcutaneous injections of the heat-killed Bacille Calmette Guerin strain of Mycobacterium tuberculosis, (231141; Difco Laboratories) (BCG, 50 μg per animal/dose) once a week, for three weeks. The first two BCG administrations were mixed 1:1 with Incomplete Freund's adjuvant (IFA) (Sigma), and the second boost delivery was given with PBS. Mice sacrifice and cell isolations were performed two days after the third injection. Spleen weight was measured and cells from the spleen and peripheral blood (PBLs) were analyzed. The results represent three independent experiments.

[5] = test system: CD4+Foxp3+ Treg cells; set-up: species or system mice; details: mouse, in vivo
[6] = test system: CD247 (ζ chain); set-up: species or system mice; details: mouse, in vivo; for increase in the expression value of CD247 upon treatment: ip
[7] = test system: CD3ε chain; set-up: species or system mice; details: mouse, in vivo
[8] = test system: MDSCs; format: in vivo, mice; details: spleen of BCG-inflamed mice, monotherapy, MFI

| Compound | MDSC levels in the spleen [1] | CD247 expression in host and adoptively transferred donor NK cells [2] | CD247 expression in host and adoptively transferred donor T cells [2] | differentiated myeloid cells in spleen (CD11b+CD11c+ DCs, CD11b+F4/80+ macrophages) [3] | spleen size and weight [4] | MDSC levels in peripheral blood (PBLs) [1] | levels of Treg cells (CD4+Foxp3+) in spleen [5] | CD247 expression in T cells, spleen [6] | CD3ε expression levels [7] | NO production by MDSCs [8] | ROS production by MDSCs [8] | increase in the expression value of CD247 upon treatment [6] | CD247 expression in T cells, PBLs [6] |
| --- | --- | --- | --- | --- | --- | --- | --- | --- | --- | --- | --- | --- | --- |
| etanercept | decreased percentage of MDSCs | significantly increased | significantly increased | significant increase | reduced spleen size and weight |  |  |  |  |  |  |  |  |
| O=P1(N(CCCl)CCCl)NCCCO1 (stereo not shown) [Cyclophosphamide] | remained high; also recorded: significantly increased |  |  |  |  | significantly increased; also recorded: significant accumulation | decrease | down-regulation of CD247 that was observed in the course of chronic inflammation was maintained | remained normal | maintained high | maintained high |  |  |
| CS(=O)(=O)OCCCCOS(C)(=O)=O [Busulfan, 1,4-butanediol dimethanesulfonate] | significant decline; also recorded: decrease; also recorded: reduced |  |  |  |  | significant decline; also recorded: decrease; also recorded: reduced | remained unchanged | initial recovery | remained uniform among the different groups |  |  | about 23% |  |
| COc1cccc2c1C(=O)c1c(O)c3c(c(O)c1C2=O)C[C@@](O)(C(=O)CO)C[C@@H]3O[C@H]1C[C@H](N)[C@H](O)[C@H](C)O1 [Doxorubicin] | significant decline; also recorded: decrease; also recorded: reduced |  |  |  |  | significant decline; also recorded: decrease; also recorded: reduced | not affected; also recorded: no change | clear increase | uniform among the different groups |  |  | about 24% | clear increase |
